Assay results taken from patent publication US8859625B2, “Methods to prepare penta-1,4-dien-3-ones and substituted cyclohexanones and derivatives with antitumoral and antiparasitic properties, the compounds and their uses” (Universidade Bandeirante de Sao Paulo-Academia, Paulista …, priority 2006, dated 2014).

How the values were obtained:
[1] = tested on: Leishmania (L) amazonensis promastigote forms (isolate LV79); experiment: Promastigote proliferation in RPMI medium, Neubauer chamber count; type: cell-based
Procedure: (§1) Compounds are solubilized with dimethyl sulfoxide (DMSO) to produce a stock solution from which samples with different concentrations are obtained, by adding the culture medium in sufficient volume as required to attain the first desired concentration with the other concentrations being obtained by serial dilution of this first one, at ratio 2. The cultures are incubated at 22° C. or 34° C. for promastigotes and amastigotes, respectively.
(§2) As a positive control for parasite viability evaluation, only culture medium and parasite, without any other addition, were used. As toxicity control for the solvent present in compound composition, parasite forms were incubated with DMSO diluted in culture medium.
(§3) To quantify the promastigotes, Neubauer chambers are used and the cultures are quantified every 24 hours throughout the incubation period scheduled for each experiment. The samples are prepared from an initial dilution of 20 μL of the culture into 180 μL of the saline solution formulated (PBS+2% formaldehyde) to obtain a 1/10 dilution. Whenever necessary, serial dilutions may be performed from the first dilution. For all experiments, parasite forms should be incubated with several HB-1 concentrations, its respective controls with DMSO (we should have in mind that the initial HB-1 stock solution was prepared with DMSO and that its toxicity in relation to the parasite forms have to be assessed) and the normal culture, without any component additioned to the medium. Countings are performed as duplicates, by two different people and the final result is expressed as the arithmetic average from the two countings. The same procedure is employed to quantify the amastigote forms.
Leishmania (L) amazonensis promastigote forms (isolade LV79, 1st passage in culture medium, day 7 of culture, stationary phase) are incubated at a proportion of 10^6 promastigotes/mL of RPMI medium, 3.0 mL final volume, in the presence of different concentrations of HB-1 and of the respective controls in DMSO. The effect of HB-1 compound on the proliferation of Leishmania (L) amazonensis promastigotes-RPMI medium is shown in the next Table and in FIG. 34.

[2] = tested on: promastigote forms of Leishmania (L) amazonensis (isolate LV79); experiment: Promastigote proliferation in Warren medium, Neubauer chamber count; type: cell-based
Procedure: as §1, §2, §3
Promastigote forms of Leishmania (L) amazonensis (isolate LV79, 8th passage for the culture medium, day 7 of culture, stationary phase) are incubated in a proportion of 10^6 promastigotes/mL in Warren medium, 3.0 mL final volume, in the presence of different concentrations of HB-1 and of the respective controls in equivalent volume of DMSO and culture medium, as positive control for proliferation and viability. The effect of HB-1 on the promastigotes of Leishmania amazonensis cultivated in Warren medium is shown in the next Table and FIG. 33.

## COc1cc(C=CC(=O)C=Cc2ccc(O)c(OC)c2)ccc1O [HB-1, 1,5-Bis-(4-hydroxy-3-methoxy-phenyl)-penta-1,4-dien-3-one]
[1]; HB-1 3.12 μg/mL, 24 hours
  N^o. of promastigotes/mL (×10^6): 1.6 ×10^6 promastigotes/mL
[1]; HB-1 3.12 μg/mL, 48 hours
  N^o. of promastigotes/mL (×10^6): 2.1 ×10^6 promastigotes/mL
[1]; HB-1 3.12 μg/mL, 72 hours
  N^o. of promastigotes/mL (×10^6): 2.1 ×10^6 promastigotes/mL
[1]; HB-1 3.12 μg/mL, 144 hours
  N^o. of promastigotes/mL (×10^6): 2.4 ×10^6 promastigotes/mL
[1]; HB-1 6.25 μg/mL, 24 hours
  N^o. of promastigotes/mL (×10^6): 0.8 ×10^6 promastigotes/mL
[1]; HB-1 6.25 μg/mL, 48 hours
  N^o. of promastigotes/mL (×10^6): 1.0 ×10^6 promastigotes/mL
[1]; HB-1 6.25 μg/mL, 72 hours
  N^o. of promastigotes/mL (×10^6): 0.7 ×10^6 promastigotes/mL
[1]; HB-1 6.25 μg/mL, 144 hours
  N^o. of promastigotes/mL (×10^6): 0.3 ×10^6 promastigotes/mL
[1]; HB-1 12.5 μg/mL, 24 hours
  N^o. of promastigotes/mL (×10^6): 0.7 ×10^6 promastigotes/mL
[1]; HB-1 12.5 μg/mL, 48 hours
  N^o. of promastigotes/mL (×10^6): 0 ×10^6 promastigotes/mL
[1]; HB-1 12.5 μg/mL, 72 hours
  N^o. of promastigotes/mL (×10^6): 0 ×10^6 promastigotes/mL
[1]; HB-1 12.5 μg/mL, 144 hours
  N^o. of promastigotes/mL (×10^6): 0 ×10^6 promastigotes/mL
[1]; HB-1 25 μg/mL, 24 hours
  N^o. of promastigotes/mL (×10^6): 0.5 ×10^6 promastigotes/mL
[1]; HB-1 25 μg/mL, 48 hours
  N^o. of promastigotes/mL (×10^6): 0 ×10^6 promastigotes/mL
[1]; HB-1 25 μg/mL, 72 hours
  N^o. of promastigotes/mL (×10^6): 0 ×10^6 promastigotes/mL
[1]; HB-1 25 μg/mL, 144 hours
  N^o. of promastigotes/mL (×10^6): 0 ×10^6 promastigotes/mL
[1]; HB-1 50 μg/mL, 24 hours
  N^o. of promastigotes/mL (×10^6): 0.1 ×10^6 promastigotes/mL
[1]; HB-1 50 μg/mL, 48 hours
  N^o. of promastigotes/mL (×10^6): 0 ×10^6 promastigotes/mL
[1]; HB-1 50 μg/mL, 72 hours
  N^o. of promastigotes/mL (×10^6): 0 ×10^6 promastigotes/mL
[1]; HB-1 50 μg/mL, 144 hours
  N^o. of promastigotes/mL (×10^6): 0 ×10^6 promastigotes/mL
[1]; HB-1 100 μg/mL to 12.5 μg/mL, 48 hours
  inhibitory effect (=mortality): 100%
[1]; HB-1 100 μg/mL, 24 hours
  N^o. of promastigotes/mL (×10^6): 0 ×10^6 promastigotes/mL
[1]; HB-1 100 μg/mL, 48 hours
  N^o. of promastigotes/mL (×10^6): 0 ×10^6 promastigotes/mL
[1]; HB-1 100 μg/mL, 72 hours
  N^o. of promastigotes/mL (×10^6): 0 ×10^6 promastigotes/mL
[1]; HB-1 100 μg/mL, 144 hours
  N^o. of promastigotes/mL (×10^6): 0 ×10^6 promastigotes/mL
[2]; HB-1 3.12 μg/mL, 24 hours, Warren medium
  N^o. of promastigotes/mL (×10^6): 3.0 ×10^6 promastigotes/mL
[2]; HB-1 3.12 μg/mL, 48 hours, Warren medium
  N^o. of promastigotes/mL (×10^6): 5.95 ×10^6 promastigotes/mL
[2]; HB-1 3.12 μg/mL, 72 hours, Warren medium
  N^o. of promastigotes/mL (×10^6): 10 ×10^6 promastigotes/mL
[2]; HB-1 3.12 μg/mL, 96 hours, Warren medium
  N^o. of promastigotes/mL (×10^6): 11 ×10^6 promastigotes/mL
[2]; HB-1 3.12 μg/mL, 120 hours, Warren medium
  N^o. of promastigotes/mL (×10^6): 17 ×10^6 promastigotes/mL
[2]; HB-1 6.25 μg/mL, 24 hours, Warren medium
  N^o. of promastigotes/mL (×10^6): 2.5 ×10^6 promastigotes/mL
[2]; HB-1 6.25 μg/mL, 48 hours, Warren medium
  N^o. of promastigotes/mL (×10^6): 3.95 ×10^6 promastigotes/mL
[2]; HB-1 6.25 μg/mL, 72 hours, Warren medium
  N^o. of promastigotes/mL (×10^6): 7.15 ×10^6 promastigotes/mL
[2]; HB-1 6.25 μg/mL, 96 hours, Warren medium
  N^o. of promastigotes/mL (×10^6): 13.0 ×10^6 promastigotes/mL
[2]; HB-1 6.25 μg/mL, 120 hours, Warren medium
  N^o. of promastigotes/mL (×10^6): 18.6 ×10^6 promastigotes/mL
[2]; HB-1 12.5 μg/mL to 3.12 μg/mL, Warren medium
  effect on promastigotes in words: sub-lethal
[2]; HB-1 12.5 μg/mL, 24 hours, Warren medium
  N^o. of promastigotes/mL (×10^6): 2.55 ×10^6 promastigotes/mL
[2]; HB-1 12.5 μg/mL, 48 hours, Warren medium
  N^o. of promastigotes/mL (×10^6): 2.25 ×10^6 promastigotes/mL
[2]; HB-1 12.5 μg/mL, 72 hours, Warren medium
  N^o. of promastigotes/mL (×10^6): 3.9 ×10^6 promastigotes/mL
[2]; HB-1 12.5 μg/mL, 96 hours, Warren medium
  N^o. of promastigotes/mL (×10^6): 5.9 ×10^6 promastigotes/mL
[2]; HB-1 12.5 μg/mL, 120 hours, Warren medium
  N^o. of promastigotes/mL (×10^6): 18.3 ×10^6 promastigotes/mL
[2]; HB-1 25 μg/mL, 24 hours, Warren medium
  N^o. of promastigotes/mL (×10^6): 3.25 ×10^6 promastigotes/mL
[2]; HB-1 25 μg/mL, 48 hours, Warren medium
  N^o. of promastigotes/mL (×10^6): 1.8 ×10^6 promastigotes/mL
[2]; HB-1 25 μg/mL, 72 hours, Warren medium
  N^o. of promastigotes/mL (×10^6): 0.4 ×10^6 promastigotes/mL
[2]; HB-1 25 μg/mL, 96 hours, Warren medium
  N^o. of promastigotes/mL (×10^6): 0.1 ×10^6 promastigotes/mL
[2]; HB-1 25 μg/mL, 120 hours, Warren medium
  N^o. of promastigotes/mL (×10^6): 0 ×10^6 promastigotes/mL
[2]; HB-1 25 μg/mL, Warren medium
  time of culture to 100% mortality: 120 h
[2]; HB-1 50 μg/mL, 24 hours, Warren medium
  N^o. of promastigotes/mL (×10^6): 2.1 ×10^6 promastigotes/mL
[2]; HB-1 50 μg/mL, 48 hours, Warren medium
  N^o. of promastigotes/mL (×10^6): 0.4 ×10^6 promastigotes/mL
[2]; HB-1 50 μg/mL, 72 hours, Warren medium
  N^o. of promastigotes/mL (×10^6): 0.1 ×10^6 promastigotes/mL
[2]; HB-1 50 μg/mL, 96 hours, Warren medium
  N^o. of promastigotes/mL (×10^6): 0 ×10^6 promastigotes/mL
[2]; HB-1 50 μg/mL, 120 hours, Warren medium
  N^o. of promastigotes/mL (×10^6): 0 ×10^6 promastigotes/mL
[2]; HB-1 50 μg/mL, Warren medium
  time of culture to 100% mortality: 96 h
[2]; HB-1 100 μg/mL, 24 hours, Warren medium
  N^o. of promastigotes/mL (×10^6): 1.15 ×10^6 promastigotes/mL
[2]; HB-1 100 μg/mL, 48 hours, Warren medium
  N^o. of promastigotes/mL (×10^6): 0.2 ×10^6 promastigotes/mL
[2]; HB-1 100 μg/mL, 72 hours, Warren medium
  N^o. of promastigotes/mL (×10^6): 0 ×10^6 promastigotes/mL
[2]; HB-1 100 μg/mL, 96 hours, Warren medium
  N^o. of promastigotes/mL (×10^6): 0 ×10^6 promastigotes/mL
[2]; HB-1 100 μg/mL, 120 hours, Warren medium
  N^o. of promastigotes/mL (×10^6): 0 ×10^6 promastigotes/mL
[2]; HB-1 100 μg/mL, Warren medium
  time of culture to 100% mortality: 72 h
[2]; Leishmania, 72 h, read-out: inhibition of parasite proliferation
  inhibition at 25 µg/mL: 81%
[2]; Leishmania, HB-1 50 μg/mL, after 72 hours, Warren medium, read-out: inhibition of parasite proliferation
  inhibition at 50 µg/mL: 95.8%
[2]; Leishmania, HB-1 100 μg/mL, after 72 hours, Warren medium, read-out: inhibition of parasite proliferation
  inhibition at 100 µg/mL: 100%
